The assay addresses T1, MexG (Pseudomonas aeruginosa, UniProt Q9HWH6).
T1 sequence (Q9HWH6 1-148): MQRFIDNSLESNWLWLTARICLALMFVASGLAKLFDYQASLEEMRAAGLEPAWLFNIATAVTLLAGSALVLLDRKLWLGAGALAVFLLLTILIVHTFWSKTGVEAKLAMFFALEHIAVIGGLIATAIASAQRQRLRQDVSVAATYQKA
Put plainly: intrinsic Trp fluorescence quenching titration. The class given is binding.

In turn, `CCCCCCCc1[nH]c2ccccc2c(=O)c1O` [PQS, 2-heptyl-3-hydroxy-4(1H)-quinolone] registered a Kd of 1000 nM.
